Measurements reported in US20260174863A1, “ISOMERICALLY PURE BETA-CYCLODEXTRIN DERIVATIVES AND USES THEREOF” (Beren Therapeutics P.B.C., priority 2023, published 2026).

What was measured:
[1] = system: differentiated human THP-1 monocytes; assay: CEC - Cholesterol Efflux Assay (abcam ab196985); format: cell-based; settings: 4 h, reference standard = non-isomerically pure hydroxypropyl beta-cyclodextrin
Procedure: Cholesterol Efflux from differentiated human THP-1 monocytes was assessed according to the manufacturer's protocol (abcam, ab196985). Briefly, THP-1 monocytes were differentiated for 48 h in presence of 100 nM phorbol 12-myristate-13-acetate (PMA) in RPMI 1640 growth medium (10% FCS, 1% penicillin/streptomycin) in a humidified incubator (37° C., 5% CO2). Differentiated THP-1 macrophage-like cells were harvested, washed with PBS, resuspended in growth medium, seeded at 1×10^5 cells into 96-well plates, and allowed to adhere for 6h. Cells were washed with serum-free RPMI media, and labelled with 100 μL of fluorescent cholesterol labelling medium (50 uL Labeling Reagent+50 uL serum-free RPMI) for 1 h protected from light. Labeling medium was removed and replaced with 100 μL, 37° C. pre-warmed equilibration medium (50 uL Equilibration Buffer+[…] Reagent A +10 μL/mL Reagent B+50 uL serum-free RPMI) and incubated for 16±1 h in an incubator (37° C., 5% CO2). Equilibration medium was removed, and cells were washed with RPMI (w/o phenol red, w/o serum). Serum cholesterol acceptor was prepared by mixing 2 parts of Serum Treatment Reagent with 5 parts of human serum, incubated on ice for 20 minutes. The mix was centrifuged at 9,000×g for 10 minutes at 4° C., and supernatants were stored on ice until use. THP-1 cells were incubated for 4 h with 100 uL RPMI media (w/o phenol red, w/o serum), spiked with 10 uL of compound (10× stock in PBS) and 2 uL serum acceptor (2%), or RPMI media spiked with 10 uL PBS and 2 uL serum acceptor (negative control). Following incubation, plates were centrifuged and whole supernatants were transferred to an opaque 96-well plate. Remaining cells were lysed by adding 100 μL of Cell Lysis Buffer and shaking at 500 rpm for 25 minutes protected from light. Cell lysate was resuspended and transferred into an opaque 96-well. Plates containing supernatants or cell lysates were measured in a plate reader at 485 nm (excitation) and 523 nm (emission). Percent (%) cholesterol efflux was measured as RFU supernatant/(RFU supernatant +RFU cell lysate)×100%.
The cholesterol efflux from cells treated with compounds of the disclosure at concentrations of 0.1 mM, 0.3 mM and 1 mM, relative to cholesterol efflux from cells treated with a reference standard, are summarized in Table 1. In the table, A denotes compounds with a CEC of >126% of that of the reference standard and B denotes compounds with a CEC of 106% to 125% of that of the reference standard; 0 denotes compounds with a CEC of 96%-105% of that of the reference standard; and—denotes compounds with a CEC of 75%-95% of that of the reference standard. The reference standard is a non-isomerically pure hydroxypropyl beta-cyclodextrin.

[2] = system: differentiated human THP-1 monocytes; assay: Cytotoxicity assay, lactate dehydrogenase (LDH) release (CytoTox 96, Promega G1780); format: cell-based; settings: samples from CEC assay, reference standard = non-isomerically pure hydroxypropyl beta-cyclodextrin
Procedure: Cytotoxicity was measured using a lactate dehydrogenase (LDH) assay, according to the manufacturer's protocol (CytoTox 96® Non-Radioactive Cytotoxicity Assay, Promega, G1780). Supernatants and cell lysates from CEC assay served as samples. Briefly, 50 uL of supernatant and cell lysates were transferred into separate transparent 96-well plates. 50 uL CytoTox 96© Reagent was added to the wells, mixed by pipetting, and incubated for 10 minutes protected from light. 50 μL of Stop Solution was added, mixed by pipetting, and absorbance (OD) was measured at 490 nm in a plate reader. Phenol red-free RPMI with 10% […] and Cell Lysis Buffer (abcam, ab196985) served as background controls. Percent (%) cytotoxicity was measured as OD supernatant/(OD supernatant+OD cell lysate)×100%.
Lactate dehydrogenase (LDH) released from cells treated with compounds of the disclosure at concentrations of 0.1 mM, 0.3 mM and 1 mM, relative to LDH) released from cells treated with a reference standard, are summarized in Table 2. In the table, A denotes compounds releasing LDH in an amount of <70% of that of the reference standard; B denotes compounds releasing LDH in an amount of 71-95% of that of the reference standard; 0 denotes compounds releasing LDH in an amount of 96%-105% of that of the reference standard; +denotes compounds releasing LDH in an amount of 106%-120% of that of the reference standard; and ++denotes compounds releasing LDH in an amount of >120% of that of the reference standard The reference standard is a non-isomerically pure hydroxypropyl beta-cyclodextrin.

| Compound | Cholesterol efflux from cells treated with compounds, relative to reference standard ([1]; 0.1 mM) | Cholesterol efflux from cells treated with compounds, relative to reference standard ([1]; 0.3 mM) | Cholesterol efflux from cells treated with compounds, relative to reference standard ([1]; 1 mM) | Release of lactate dehydrogenase from cells treated with compounds, relative to reference standard ([2]; 0.1 mM) | Release of lactate dehydrogenase from cells treated with compounds, relative to reference standard ([2]; 0.3 mM) | Release of lactate dehydrogenase from cells treated with compounds, relative to reference standard ([2]; 1 mM) |
| --- | --- | --- | --- | --- | --- | --- |
| CC(O)CO[C@H]1[C@H]2O[C@H]3[C@H](O)[C@@H](OCC(C)O)[C@@H](O[C@H]4[C@H](O)[C@@H](OCC(C)O)[C@@H](O[C@H]5[C@H](O)[C@@H](OCC(C)O)[C@@H](O[C@H]6[C@H](O)[C@@H](OCC(C)O)[C@@H](O[C@H]7[C@H](O)[C@@H](OCC(C)O)[C@@H](O[C@H]8[C@H](O)[C@@H](OCC(C)O)[C@@H](O[C@@H]([C@@H]1O)[C@@H](CO)O2)O[C@@H]8CO)O[C@@H]7CO)O[C@@H]6CO)O[C@@H]5CO)O[C@@H]4CO)O[C@@H]3CO (stereo partly drawn) [Compound 5] | − (—denotes compounds with a CEC of 75%-95% of that of the reference standard) | − (—denotes compounds with a CEC of 75%-95% of that of the reference standard) | − (—denotes compounds with a CEC of 75%-95% of that of the reference standard) | 0 (0 denotes compounds releasing LDH in an amount of 96%-105% of that of the reference standard) | 0 (0 denotes compounds releasing LDH in an amount of 96%-105% of that of the reference standard) | 0 (0 denotes compounds releasing LDH in an amount of 96%-105% of that of the reference standard) |
| COCCO[C@H]1[C@H]2O[C@H]3[C@H](O)[C@@H](OCCOC)[C@@H](O[C@H]4[C@H](O)[C@@H](OCCOC)[C@@H](O[C@H]5[C@H](O)[C@@H](OCCOC)[C@@H](O[C@H]6[C@H](O)[C@@H](OCCOC)[C@@H](O[C@H]7[C@H](O)[C@@H](OCCOC)[C@@H](O[C@H]8[C@H](O)[C@@H](OCCOC)[C@@H](O[C@@H]([C@@H]1O)[C@@H](CO)O2)O[C@@H]8CO)O[C@@H]7CO)O[C@@H]6CO)O[C@@H]5CO)O[C@@H]4CO)O[C@@H]3CO [Compound 1] | 0 (0 denotes compounds with a CEC of 96%-105% of that of the reference standard) | 0 (0 denotes compounds with a CEC of 96%-105% of that of the reference standard) | 0 (0 denotes compounds with a CEC of 96%-105% of that of the reference standard) | B (B denotes compounds releasing LDH in an amount of 71-95% of that of the reference standard) | B (B denotes compounds releasing LDH in an amount of 71-95% of that of the reference standard) | B (B denotes compounds releasing LDH in an amount of 71-95% of that of the reference standard) |
| OCC(O)CO[C@H]1[C@H]2O[C@H]3[C@H](O)[C@@H](OCC(O)CO)[C@@H](O[C@H]4[C@H](O)[C@@H](OCC(O)CO)[C@@H](O[C@H]5[C@H](O)[C@@H](OCC(O)CO)[C@@H](O[C@H]6[C@H](O)[C@@H](OCC(O)CO)[C@@H](O[C@H]7[C@H](O)[C@@H](OCC(O)CO)[C@@H](O[C@H]8[C@H](O)[C@@H](OCC(O)CO)[C@@H](O[C@@H]([C@@H]1O)[C@@H](CO)O2)O[C@@H]8CO)O[C@@H]7CO)O[C@@H]6CO)O[C@@H]5CO)O[C@@H]4CO)O[C@@H]3CO (stereo partly drawn) [Compound 3] | − (—denotes compounds with a CEC of 75%-95% of that of the reference standard) | − (—denotes compounds with a CEC of 75%-95% of that of the reference standard) | − (—denotes compounds with a CEC of 75%-95% of that of the reference standard) | ++ (++denotes compounds releasing LDH in an amount of >120% of that of the reference standard) | + (+denotes compounds releasing LDH in an amount of 106%-120% of that of the reference standard) | 0 (0 denotes compounds releasing LDH in an amount of 96%-105% of that of the reference standard) |
| CC(O)CO[C@@H]1[C@@H](O)[C@H]2O[C@H]3[C@H](OCC(C)O)[C@@H](O)[C@@H](O[C@H]4[C@H](OCC(C)O)[C@@H](O)[C@@H](O[C@H]5[C@H](OCC(C)O)[C@@H](O)[C@@H](O[C@H]6[C@H](OCC(C)O)[C@@H](O)[C@@H](O[C@H]7[C@H](OCC(C)O)[C@@H](O)[C@@H](O[C@H]8[C@H](OCC(C)O)[C@@H](O)[C@@H](O[C@@H]1[C@@H](CO)O2)O[C@@H]8CO)O[C@@H]7CO)O[C@@H]6CO)O[C@@H]5CO)O[C@@H]4CO)O[C@@H]3CO (stereo partly drawn) [Compound 4] | − (—denotes compounds with a CEC of 75%-95% of that of the reference standard) | − (—denotes compounds with a CEC of 75%-95% of that of the reference standard) | − (—denotes compounds with a CEC of 75%-95% of that of the reference standard) | ++ (++denotes compounds releasing LDH in an amount of >120% of that of the reference standard) | ++ (++denotes compounds releasing LDH in an amount of >120% of that of the reference standard) | ++ (++denotes compounds releasing LDH in an amount of >120% of that of the reference standard) |
| CC(C)(O)CO[C@@H]1[C@@H](O)[C@H]2O[C@H]3[C@H](OCC(C)(C)O)[C@@H](O)[C@@H](O[C@H]4[C@H](OCC(C)(C)O)[C@@H](O)[C@@H](O[C@H]5[C@H](OCC(C)(C)O)[C@@H](O)[C@@H](O[C@H]6[C@H](OCC(C)(C)O)[C@@H](O)[C@@H](O[C@H]7[C@H](OCC(C)(C)O)[C@@H](O)[C@@H](O[C@H]8[C@H](OCC(C)(C)O)[C@@H](O)[C@@H](O[C@@H]1[C@@H](CO)O2)O[C@@H]8CO)O[C@@H]7CO)O[C@@H]6CO)O[C@@H]5CO)O[C@@H]4CO)O[C@@H]3CO [Compound 6] | 0 (0 denotes compounds with a CEC of 96%-105% of that of the reference standard) | − (—denotes compounds with a CEC of 75%-95% of that of the reference standard) | − (—denotes compounds with a CEC of 75%-95% of that of the reference standard) | 0 (0 denotes compounds releasing LDH in an amount of 96%-105% of that of the reference standard) | + (+denotes compounds releasing LDH in an amount of 106%-120% of that of the reference standard) | + (+denotes compounds releasing LDH in an amount of 106%-120% of that of the reference standard) |
